Measured values: article PMC11748363, “Antimicrobial and Antiproliferative Properties of 2‐Phenyl‐N‐(Pyridin‐2‐yl)acetamides” (Chemical Biology & Drug Design, 2025)
Values after ≈ are worked out from the molar mass of the structure shown. Where two headings read alike, the source gives them in different places.

Key:
[1] = test system: Mycobacterium tuberculosis H37Ra; experiment: Antimycobacterial microdilution broth MIC (resazurin), Mtb H37Ra; type: cell-based; settings: for MIC: Mycobacterium tuberculosis, H37RA, read-out: MIC Mtb H37Ra
[2] = test system: Mycolicibacterium smegmatis DSM 43465; experiment: Antimycobacterial microdilution broth MIC (resazurin), M. smegmatis; type: cell-based; settings: DSM43465, read-out: MIC M. smegmatis
[3] = test system: Mycolicibacterium aurum DSM 43999; experiment: Antimycobacterial microdilution broth MIC (resazurin), M. aurum; type: cell-based; settings: DSM43999, read-out: MIC M. aurum
[4] = test system: HepG2 cell line; experiment: Cytotoxicity CellTiter 96, HepG2; type: cell-based, human; settings: Homo sapiens, HepG2, 24 h, 24 h incubation; ^c compound precipitated in the testing medium; ^d over the limit of tested concentrations
[5] = test system: Staphylococcus aureus CCM 4223, ATCC 29213; experiment: Antibacterial microdilution broth MIC, SA; type: cell-based; settings: Staphylococcus aureus
[6] = test system: Staphylococcus aureus subsp. aureus CCM 4750, ATCC 43300 (MRSA); experiment: Antibacterial microdilution broth MIC, MRSA; type: cell-based; settings: Staphylococcus aureus
[7] = test system: Staphylococcus epidermidis CCM 4418, ATCC 12228; experiment: Antibacterial microdilution broth MIC, SE; type: cell-based
[8] = test system: Enterococcus faecalis CCM 4224, ATCC 29212; experiment: Antibacterial microdilution broth MIC, EF; type: cell-based
[9] = test system: Escherichia coli CCM 3954, ATCC 25922; experiment: Antibacterial microdilution broth MIC, EC; type: cell-based
[10] = test system: Acinetobacter baumannii DSM 30007, ATCC 19606; experiment: Antibacterial microdilution broth MIC, ACI; type: cell-based
[11] = test system: Pseudomonas aeruginosa CCM 3955, ATCC 27853; experiment: Antibacterial microdilution broth MIC, PA; type: cell-based
[12] = test system: Candida albicans CCM 8320, ATCC 24433; experiment: Antifungal microdilution broth MIC, CA
[13] = test system: Candida krusei CCM 8271, ATCC 6258; experiment: Antifungal microdilution broth MIC, CK; settings: Pichia kudriavzevii
[14] = test system: Candida parapsilosis CCM 8260, ATCC 22019; experiment: Antifungal microdilution broth MIC, CP; settings: Lodderomyces parapsilosis
[15] = test system: Candida tropicalis CCM 8264, ATCC 750; experiment: Antifungal microdilution broth MIC, CT
[16] = test system: Aspergillus fumigatus ATCC 204305; experiment: Antifungal microdilution broth MIC, AF
[17] = test system: Lichtheimia corymbifera CCM 8077; experiment: Antifungal microdilution broth MIC, LC
[18] = test system: Trichophyton interdigitale CCM 8377, ATCC 9533; experiment: Antifungal microdilution broth MIC, TI; settings: Trichophyton interdigitale
[19] = test system: Aspergillus flavus CCM 8363; experiment: Antifungal microdilution broth MIC, AFla
[20] = test system: Klebsiella pneumoniae CCM 4415, ATCC 10031; experiment: Antibacterial microdilution broth MIC, KP
[21] = ATCC204305, 24 h, read-out: MIC AF 24h
[22] = ATCC204305, 48 h, read-out: MIC AF 48h
[23] = CCM8077, 24 h, read-out: MIC LC 24h
[24] = CCM8077, 48 h, read-out: MIC LC 48h
[25] = CCM8363, 24 h, read-out: MIC AFla 24h
[26] = CCM8363, 48 h, read-out: MIC AFla 48h

SMILES	MIC ([1]; Calculated from MIC (μg/mL)) [µM]	MIC [1] [µg/mL]	MIC [2] [µg/mL]	MIC [3] [µg/mL]	IC50 [4] [µM]	MIC ([5]; 24 h, read-out: MIC SA 24h) [µM]	MIC ([5]; 48 h, read-out: MIC SA 48h) [µM]	MIC ([6]; 24 h, read-out: MIC MRSA 24h) [µM]	MIC ([6]; 48 h, read-out: MIC MRSA 48h) [µM]	MIC ([7]; 24 h, read-out: MIC SE 24h) [µM]	MIC ([7]; 48 h, read-out: MIC SE 48h) [µM]	MIC ([8]; 24 h, read-out: MIC EF 24h) [µM]	MIC ([8]; 48 h, read-out: MIC EF 48h) [µM]	MIC ([9]; 24 h, read-out: MIC EC 24h) [µM]	MIC ([9]; 48 h, read-out: MIC EC 48h) [µM]	MIC ([10]; 24 h, read-out: MIC ACI 24h) [µM]	MIC ([10]; 48 h, read-out: MIC ACI 48h) [µM]	MIC ([11]; 24 h, read-out: MIC PA 24h) [µM]	MIC ([11]; 48 h, read-out: MIC PA 48h) [µM]	MIC ([12]; 24 h, read-out: MIC CA 24h) [µM]	also measured
O=C(Cc1ccc(Cl)cc1)Nc1ccccn1 [Compound 19]	127	31.2	31.2 (≈ 127 µM)	> 500	333	500 (≈ 123 µg/mL)	500 (≈ 123 µg/mL)	> 500	> 500	125 (≈ 30.8 µg/mL)	125 (≈ 30.8 µg/mL)	> 500	> 500	> 500	> 500	> 500	> 500	> 500	> 500	> 500	SI (selectivity index) ([1]; SI = HepG2 IC50 (μM)/MIC MtbH37Ra (μM), calculated for compounds with MIC ≤ 31.25 μg/mL): 2.6; MIC ([12]; 48 h, read-out: MIC CA 48h): > 500 µM; MIC ([13]; 24 h, read-out: MIC CK 24h): 500 µM (≈ 123 µg/mL); MIC ([13]; 48 h, read-out: MIC CK 48h): 500 µM (≈ 123 µg/mL); MIC ([14]; 24 h, read-out: MIC CP 24h): 500 µM (≈ 123 µg/mL); MIC ([14]; 48 h, read-out: MIC CP 48h): 500 µM (≈ 123 µg/mL); MIC ([15]; 24 h, read-out: MIC CT 24h): > 500 µM; MIC ([15]; 48 h, read-out: MIC CT 48h): > 500 µM; MIC [16, 21]: > 500 µM; MIC [16, 22]: > 500 µM; MIC [17, 23]: > 500 µM; MIC [17, 24]: > 500 µM; MIC ([18]; 72 h, read-out: MIC TI 72h): 250 µM (≈ 61.7 µg/mL); MIC ([18]; 120 h, read-out: MIC TI 120h): 250 µM (≈ 61.7 µg/mL); MIC [19, 25]: > 500 µM; MIC [19, 26]: > 500 µM; MIC KP 24h [20]: > 500 µM; MIC KP 48h [20]: > 500 µM
O=C(Cc1ccccc1C(F)(F)F)Nc1ccccn1 [Compound 22]	446	125	250 (≈ 892 µM)	250 (≈ 892 µM)	445	> 500	> 500	> 500	> 500	> 500	> 500	> 500	> 500	> 500	> 500	> 500	> 500	> 500	> 500	> 500	MIC ([12]; 48 h, read-out: MIC CA 48h): > 500 µM; MIC ([13]; 24 h, read-out: MIC CK 24h): > 500 µM; MIC ([13]; 48 h, read-out: MIC CK 48h): > 500 µM; MIC ([14]; 24 h, read-out: MIC CP 24h): > 500 µM; MIC ([14]; 48 h, read-out: MIC CP 48h): > 500 µM; MIC ([15]; 24 h, read-out: MIC CT 24h): > 500 µM; MIC ([15]; 48 h, read-out: MIC CT 48h): > 500 µM; MIC [16, 21]: 500 µM (≈ 140 µg/mL); MIC [16, 22]: > 500 µM; MIC [17, 23]: 500 µM (≈ 140 µg/mL); MIC [17, 24]: > 500 µM; MIC ([18]; 72 h, read-out: MIC TI 72h): 500 µM (≈ 140 µg/mL); MIC ([18]; 120 h, read-out: MIC TI 120h): 500 µM (≈ 140 µg/mL); MIC [19, 25]: > 500 µM; MIC [19, 26]: > 500 µM; MIC KP 24h [20]: > 500 µM; MIC KP 48h [20]: > 500 µM
